Data as given in ChEMBL document CHEMBL1137218, “Long hydrocarbon chain ether diols and ether diacids that favorably alter lipid disorders in vivo” (J Med Chem, 2004).

Tests used:
Rattus norvegicus [1] = test: Serum HDL cholesterol levels in female obese rats one week post treatment at 100 mg/kg oral dose; pretreatment value = 59 mg/dL; format: functional
Rattus norvegicus [2] = test: Insulin levels in female obese rats two weeks post treatment at 30 mg/kg oral dose; pretreatment value = 9.3 ng/mL; format: functional
Rattus norvegicus [3] = test: Serum Triglyceride levels in female obese rats one week post treatment at 3 mg/kg oral dose; pretreatment value = 769 mg/dL; format: functional
Rattus norvegicus [4] = test: Blood glucose levels in female obese rats one week post treatment at 10 mg/kg oral dose; pretreatment value = 112 mg/dL; format: functional
Rattus norvegicus [5] = test: Serum NEFA levels in female obese rats two weeks post treatment at 30 mg/kg oral dose; pretreatment value = 1.3 mg/dL; format: functional
Rattus norvegicus [6] = test: Blood glucose levels in female obese rats one week post treatment at 30 mg/kg oral dose; pretreatment value = 106 mg/dL; format: functional
Rattus norvegicus [7] = test: Insulin levels in female obese rats one week post treatment at 10 mg/kg oral dose; pretreatment value = 8.8 […]; format: functional
Rattus norvegicus [8] = test: Blood glucose levels in female obese rats two weeks post treatment at 30 mg/kg oral dose; pretreatment value = 106 mg/dL; format: functional
Rattus norvegicus [9] = test: Insulin levels in female obese rats two weeks post treatment at 10 mg/kg oral dose; pretreatment value = 8.8 ng/mL; format: functional
Rattus norvegicus [10] = test: Serum Non-HDL cholesterol levels in female obese rats one week post treatment at 10 mg/kg oral dose; pretreatment value = 33 mg/dL
Rattus norvegicus [11] = test: Serum NEFA levels in female obese rats two weeks post treatment at 100 mg/kg oral dose; pretreatment value = 1.2 mg/dL; format: functional

CC(C)(CO)CCCCOCCCCC(C)(C)CO
Activity (Rattus norvegicus [1]): 192 mg/dL
Activity (Rattus norvegicus [2]): 17.4 ng/mL
Activity (Rattus norvegicus [3]): 770 mg/dL
Activity (Rattus norvegicus [4]): 110 mg/dL
Activity (Rattus norvegicus [5]): 0.75 mg/dL

CC(C)(CO)CCCCCOCCCCCC(C)(C)CO
Activity (Rattus norvegicus [6]): 113 mg/dL
Activity (Rattus norvegicus [7]): 14.8 ng/mL
Activity (Rattus norvegicus [8]): 141 mg/dL
Activity (Rattus norvegicus [9]): 8.7 ng/mL
Activity (Rattus norvegicus [10]): 40 mg/dL
Activity (Rattus norvegicus [11]): 0.7 mg/dL
